This note sets out measurements from patent US10966996B2, “Glechoma longitube extract, preparation method for same, and use thereof in sugar reduction, weight loss, and lipid reduction” (SHANGHAI INSTITUTE OF MATERIA MEDICA CHINESE ACADEMY OF …, priority 2014, dated 2021).

What all share (type): biochemical
Test [1] addresses T1, hDGAT1 (Homo sapiens, UniProt O75907).
T1 construct: made in house; host or cells: insect cells
T1 sequence (O75907 1-488): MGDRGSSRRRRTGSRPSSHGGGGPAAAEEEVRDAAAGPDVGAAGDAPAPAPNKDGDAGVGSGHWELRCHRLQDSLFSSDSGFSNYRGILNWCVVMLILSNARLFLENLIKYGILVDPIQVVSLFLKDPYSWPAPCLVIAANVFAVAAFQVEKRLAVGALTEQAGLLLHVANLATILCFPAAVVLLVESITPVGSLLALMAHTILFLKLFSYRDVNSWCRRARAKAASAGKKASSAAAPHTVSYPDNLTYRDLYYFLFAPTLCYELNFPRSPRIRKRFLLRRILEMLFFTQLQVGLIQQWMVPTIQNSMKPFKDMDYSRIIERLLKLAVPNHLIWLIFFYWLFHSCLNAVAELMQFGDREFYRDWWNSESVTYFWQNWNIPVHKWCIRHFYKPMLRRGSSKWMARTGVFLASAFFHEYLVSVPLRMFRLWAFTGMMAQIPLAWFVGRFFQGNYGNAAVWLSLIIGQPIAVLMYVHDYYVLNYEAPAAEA
As to the kind of experiment: inhibitory activity against hDGAT1 (CPM fluorescence). The procedure:
Experimental method: (1) the effect of the extract of Glechoma longituba (Nakai) Kupr., LQC-H-1, on serum triglyceride level was evaluated in acute hypertriglyceridemic mouse model; 6-week old male C57BL/KsJ mice (Shanghai Slac Laboratory Animal Company), 8 for each group, weight of 20±2 g, were fed according to SPF grade operation procedure and fasted overnight for 16 hours prior to experiment. Compounds of different concentrations were intragastric administrated to each administration group of mice, respectively. Equal volume of water was given to control group and blank group of mice. 30 mins later, 2 g/kg olive oil was intragastric administrated to administration group and control group of mice, while equal volume of water was given to blank group of mice. 2 hours later, blood was collected from orbital vein of each group of mice for the separation of serum, and concentration of triglyceride in the serum was measured; (2) inhibitory activity of the individual compounds separated from the extract of Glechoma longituba (Nakai) Kupr., LQC-H-1, against diacylglycerol acyltransferase (DGAT): human derived DGAT1 obtained by expression and purification with insect cells were pre-incubated together with the compounds, substrate diacylglycerol was added to initiate the reaction in the presence of coenzyme A, fluorescence signal generated by the combination of produced sulfydryl and CPM was measured, and the inhibitory activity of the compound against DGAT was calculated according to the following formula: Inhibition rate %=(OD blank−OD compound)/(OD blank−OD negative control)*100%
(§1) OD compound, OD blank, and OD negative control represented the fluorescence values from a compound well, a blank well, and a negative control well free of DGAT1 enzyme, and the concentrations of the compounds when the enzyme activity inhibition rate (%) reached 50% were set as IC50 value; (3) inhibitory activity of the individual compounds separated from the extract of Glechoma longituba (Nakai) Kupr., LQC-H-1, against pancrelipase: substrate p-Nitrophenyl acetate (Sigma, USA) was formulated to 1.35 mM with phosphate buffer (25 mM, pH 6.8); porcine pancrelipase (Sigma) was formulated to 10 mg/ml with phosphate buffer; brominated eneyne compounds were formulated to solutions of different concentrations with phosphate buffer. Then, 50 μl of 1.35 mM p-Nitrophenyl acetate (Sigma, USA) solution and 10 μl of test compounds of different concentrations were sequentially added into a 96-well plate and pre-incubated at 37° C. for 5 mins. Finally, 50 μl of 10 mg/ml pancrelipase (EC 3.1.1.3, Sigma, USA) was added and mixed. The reaction proceeded at 37° C. for further 20 mins Absorbance of each well was measured at 492 nm. The inhibition rates (%) of the test samples against pancrelipase were calculated based on the absorbance at 492 nm. The concentrations of the compounds when then enzyme activity inhibition rate (%) reached 50% was set as IC50 value. The inhibition rate (%) could be calculated according to the following formula: Inhibition rate (%)=[(A−B)−(C−D)]/(A−B)×100

For test [2], the target named is T2, glucose oxidase (GOX) (Homo sapiens, UniProt Q9UJM8).
T2 sequence (Q9UJM8 1-370): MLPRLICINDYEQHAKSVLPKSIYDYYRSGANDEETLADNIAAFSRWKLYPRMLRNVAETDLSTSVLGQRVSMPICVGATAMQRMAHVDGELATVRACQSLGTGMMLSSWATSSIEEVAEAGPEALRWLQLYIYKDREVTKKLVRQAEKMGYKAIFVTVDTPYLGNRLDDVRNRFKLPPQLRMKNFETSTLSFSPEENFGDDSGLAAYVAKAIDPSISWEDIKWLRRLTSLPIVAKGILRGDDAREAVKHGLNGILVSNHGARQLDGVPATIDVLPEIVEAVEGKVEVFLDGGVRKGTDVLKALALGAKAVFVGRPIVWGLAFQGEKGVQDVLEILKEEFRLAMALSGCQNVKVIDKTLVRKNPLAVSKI
As to the kind of experiment: inhibitory activity against glucose oxidase (GOX), enzyme coupling method with glycolic acid substrate. Further details: Vmax: unit not given here. The procedure:
Mechanism of experiment: enzyme coupling method utilizes peroxidase (POD) and substrates thereof to react with generated H2O2 to produce colored products so as to determine the catalytic reaction rate of glucose oxidase. POD catalyzes H2O2 to react with phenol and 4-amino antipyrine to produce brown-red quinone substances.
Experimental method: reagents were added according to the table below; the reaction was immediately initiated upon the final addition of substrate glycolic acid; the kinetic course of the reaction was detected by microplate reader; the enzyme activity was represented by Vmax, maximum reaction velocity.
The measurement results were fitted by Graphpad Prism 5.0 to calculate IC50 values.

Test [3] concerns the target T3, porcine pancrelipase (Sus scrofa, UniProt P00591).
T3 construct: purchased Sigma
T3 sequence (P00591 1-450): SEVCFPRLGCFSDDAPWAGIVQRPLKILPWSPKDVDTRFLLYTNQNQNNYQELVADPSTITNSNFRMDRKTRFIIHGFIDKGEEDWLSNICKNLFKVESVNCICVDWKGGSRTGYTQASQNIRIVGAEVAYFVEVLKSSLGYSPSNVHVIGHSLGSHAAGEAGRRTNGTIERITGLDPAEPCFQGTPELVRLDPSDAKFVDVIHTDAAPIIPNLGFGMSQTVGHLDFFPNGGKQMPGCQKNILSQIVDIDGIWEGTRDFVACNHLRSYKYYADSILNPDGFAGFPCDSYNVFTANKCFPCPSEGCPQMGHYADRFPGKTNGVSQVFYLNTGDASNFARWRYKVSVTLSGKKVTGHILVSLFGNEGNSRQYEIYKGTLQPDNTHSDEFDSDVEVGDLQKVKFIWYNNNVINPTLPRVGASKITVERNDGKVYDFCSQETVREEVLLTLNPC
As to the kind of experiment: inhibitory activity against pancrelipase (p-Nitrophenyl acetate substrate). Particulars: 10 μM.
Description: as §1
In the above formula, A, B, C, and D represented the absorbance of a blank well after the reaction, the absorbance of a blank well prior to the reaction, the absorbance of a sample well after the reaction, and the absorbance of a sample well prior to the reaction.

The term inhibition denotes the drop in the measured response relative to a control, in per cent. The term IC50 denotes the concentration needed to halve the response being measured.

Consider `O=C(Nc1ccccc1)Nc1ccc(-c2ccc(C(=O)[C@@H]3CCC[C@H]3C(=O)O)cc2)cc1` [A 922500, reference compound], for which, in test [1] (10 μM), the “Inhibition rate (%) (10 μM) against hDGAT1” value was 83.36%. In test [1] (50 μM), the “Inhibition rate (%) (50 μM) against hDGAT1” value turned out to be 97.51%.

In the case of `O=c1c(O)c(-c2ccc(O)c(O)c2)oc2cc(O)cc(O)c12` [Quercetin, reference compound], the Vmax in test [2] (0.1 μM) is 34.68 ± 0.06; in test [2] (0.3 μM), 34.66 ± 0.20; in test [2] (1 μM), 33.85 ± 0.55; in test [2] (3 μM), 30.21 ± 0.12; in test [2] (10 μM), 26.55 ± 0.15; in test [2] (30 μM), 16.54 ± 0.12. The Vmax in test [2] (100 μM) is −1.40 ± 8.87. Also, the inhibition at 0.1 µM in test [2] (0.1 μM, read-out: Inhibition rate) is 2.82 ± 0.16%. Moreover, the inhibition at 0.3 µM in test [2] (0.3 μM, read-out: Inhibition rate) came out at 2.87 ± 0.57%. In addition, the inhibition at 1 µM in test [2] (1 μM, read-out: Inhibition rate) amounted to 5.12 ± 1.53%. Also, the inhibition at 3 µM in test [2] (3 μM, read-out: Inhibition rate) was determined as 15.3 ± 0.32%. In addition, the inhibition at 10 µM in test [2] (10 μM, read-out: Inhibition rate) was found to be 25.6 ± 0.41%. In test [2] (30 μM, read-out: Inhibition rate), the inhibition at 30 µM turned out to be 53.66 ± 0.34%. For the same molecule, the inhibition at 100 µM in test [2] (100 μM, read-out: Inhibition rate) stood at 104 ± 24.9%. The molecule further showed an IC50 in test [2] (fitted by Graphpad Prism 5.0) of 21 µM.

Turning to `CCCCCCCCCCC[C@@H](C[C@@H]1OC(=O)[C@H]1CCCCCC)OC(=O)[C@H](CC(C)C)NC=O` [Olistat, reference compound], the “Inhibition rate % (10 μM) against pancrelipase” value in test [3] amounted to 83.96%.
